Each structure is given as a SMILES string. Where a SMILES comes first, the peptide text is derived from it. [ ]: non-standard residue; d: D form. Lys(Me3) = C[N+](C)(C)CCCC[C@H](N)C(=O)O Where only a bound is given, the exact number is not on record here.

The source of these data is ChEMBL document CHEMBL4732117, “Small Molecule Approaches for Targeting the Polycomb Repressive Complex 2 (PRC2) in Cancer” (J Med Chem, 2020).

In series [1] the target is T1, Polycomb protein EED (Homo sapiens, UniProt O75530). Briefly: Binding affinity to EED (unknown origin) by TR-FRET based binding assay.
T1 sequence (O75530 whole entry): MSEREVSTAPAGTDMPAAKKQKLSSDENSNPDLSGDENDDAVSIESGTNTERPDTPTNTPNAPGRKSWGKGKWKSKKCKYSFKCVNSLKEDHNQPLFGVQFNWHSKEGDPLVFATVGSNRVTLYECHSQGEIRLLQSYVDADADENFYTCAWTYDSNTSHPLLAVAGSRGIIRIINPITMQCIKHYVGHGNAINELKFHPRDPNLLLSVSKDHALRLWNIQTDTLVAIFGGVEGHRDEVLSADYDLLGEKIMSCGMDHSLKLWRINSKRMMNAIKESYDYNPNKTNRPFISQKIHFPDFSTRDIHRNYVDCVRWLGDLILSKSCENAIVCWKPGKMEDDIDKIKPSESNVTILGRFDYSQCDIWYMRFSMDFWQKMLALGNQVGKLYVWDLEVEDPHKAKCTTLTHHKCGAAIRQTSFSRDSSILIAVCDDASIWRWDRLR
Another series deals with CT26. Briefly: Antitumor activity against mouse CT26 cells implanted in NOD/SCID mouse assessed as tumor growth inhibition at 30 mg/kg, PO relative to control. The series is classed as functional. The note with it: read-out: TGI.
Series [2] addresses T1, Polycomb protein EED. Briefly: Binding affinity to human N-terminal His6-tagged/thrombin cleavage site fused/ AVI-tagged EED (1 to 441 residues) expressed in Escherichia coli BL21(DE3) cells by surface plasmon resonance method.
The test system of the next series is KARPAS-422. Put plainly: Antiproliferative activity against human Karpas422 cells after 14 days by celltiter-glo luminescent cell viability assay. The series is classed as functional. Conditions: KARPAS-422, 336 h, time 14 day.
The nature of series [3]: Drug concentration in cytoplasm of human G401 cells assessed per million cells at 10 uM incubated for 2 hrs by UPLC-MS analysis. In kind it is ADME, subcellular. Conditions: g-401, 2 h.
A short description of series [4]: Drug concentration in nucleus of human G401 cells assessed per million cells at 10 uM incubated for 2 hrs by UPLC-MS analysis. Conditions: g-401, 2 h. The series is classed as ADME, subcellular.
The target in series [5] is T2, Histone-lysine N-methyltransferase EZH2 (Homo sapiens, UniProt Q15910). Put plainly: Inhibition of wild type EZH2 in human PRC2 complex using S-adenosylmethionine and biotinylated histone peptides as substrate.
T2 sequence (Q15910 whole entry): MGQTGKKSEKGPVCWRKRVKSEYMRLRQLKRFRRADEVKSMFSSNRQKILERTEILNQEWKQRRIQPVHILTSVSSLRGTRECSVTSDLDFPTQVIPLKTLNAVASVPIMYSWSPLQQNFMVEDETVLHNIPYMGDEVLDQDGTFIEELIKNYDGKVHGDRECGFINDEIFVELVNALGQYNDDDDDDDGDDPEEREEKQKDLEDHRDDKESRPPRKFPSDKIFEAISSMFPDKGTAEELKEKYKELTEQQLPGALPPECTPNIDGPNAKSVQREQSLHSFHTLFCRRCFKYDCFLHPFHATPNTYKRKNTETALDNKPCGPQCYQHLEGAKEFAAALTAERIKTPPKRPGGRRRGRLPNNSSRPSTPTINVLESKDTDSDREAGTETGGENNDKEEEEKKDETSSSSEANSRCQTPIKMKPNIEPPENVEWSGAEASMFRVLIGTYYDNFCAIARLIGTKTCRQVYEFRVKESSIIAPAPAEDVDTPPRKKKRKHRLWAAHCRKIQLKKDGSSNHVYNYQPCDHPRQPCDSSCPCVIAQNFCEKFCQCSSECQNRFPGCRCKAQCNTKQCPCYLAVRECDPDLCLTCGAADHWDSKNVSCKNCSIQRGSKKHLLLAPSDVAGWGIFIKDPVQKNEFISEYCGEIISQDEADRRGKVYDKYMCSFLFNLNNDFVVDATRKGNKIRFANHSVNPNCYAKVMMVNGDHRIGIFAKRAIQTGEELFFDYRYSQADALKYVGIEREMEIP
Series [6] concerns the target T2, Histone-lysine N-methyltransferase EZH2. Put plainly: Inhibition of EZH2 in PRC2 complex (unknown origin) expressed in Sf9 cells using histone H3 (21 to 44)-lys (biotin) and SAM as substrate incubated for 90 mins by radiometric scintillation proximity assay.
Series [7] shares this target. Put plainly: Inhibition of EZH2 in PRC2 complex (unknown origin) using biotinylated peptide as substrate in presence of S-adenosylmethionine.
The nature of series [8]: Cmax in Swiss albino mouse at 150 mg/kg, ip measured after 0.08 to 24 hrs. Conditions: in vivo. On the set-up: route intraperitoneal, time 0.08-24 hrs, dose 150 mg/kg. In kind it is ADME, organism-based.
Series [9] can be described thus: Time at which plasma concentration stays above cellular IC50 for inhibition of EZH2 in Swiss albino mouse at 50 to 150 mg/kg, ip. The note with it: in vivo, dose 50-150 mg/kg. The series is classed as organism-based.
Series [10] is described as follows: Time at which plasma concentration stays above cellular IC50 for inhibition of EZH2 in Swiss albino mouse at 15 mg/kg, ip. The series is classed as organism-based. Conditions: in vivo.
Series [11] in a line: Time at which plasma concentration stays above cellular IC50 for inhibition of EZH2 in Swiss albino mouse at 50 mg/kg, PO. In kind it is organism-based. The note with it: in vivo.
Series [12] can be described thus: Plasma concentration in mouse xenografted with human Karpas-422 cells at 40 mg/kg, po. Conditions: in vivo. The series is classed as ADME, organism-based.
For series [13], the target named is T1, Polycomb protein EED. Briefly: Binding affinity to EED in PRC2 complex (unknown origin) using H3K27me0 (21 to 44 residue) peptide as substrate by LC-MS analysis.
Series [14] addresses T1, Polycomb protein EED. Put plainly: Displacement of UNC5114-biotin tracer ligand from N-terminal 6His-tagged EED (1 to 441 residues) (unknown origin) expressed in Escherichia coli Rosetta2 BL21(DE3)pLysS cells measured after 1 hr by TR-FRET analysis.
Series [15] addresses von Hippel-Lindau disease tumor suppressor/Polycomb protein EED (Homo sapiens) (UniProt O75530+P40337). Put plainly: Induction of VHL-mediated EED degradation in human HeLa cells at 5 uM incubated for 24 hrs by Western blot analysis relative to control. In kind it is cell-based.
Series [16] has as its target T3, Histone-lysine N-methyltransferase EZH1 (Homo sapiens, UniProt Q92800).
T3 sequence (Q92800 whole entry): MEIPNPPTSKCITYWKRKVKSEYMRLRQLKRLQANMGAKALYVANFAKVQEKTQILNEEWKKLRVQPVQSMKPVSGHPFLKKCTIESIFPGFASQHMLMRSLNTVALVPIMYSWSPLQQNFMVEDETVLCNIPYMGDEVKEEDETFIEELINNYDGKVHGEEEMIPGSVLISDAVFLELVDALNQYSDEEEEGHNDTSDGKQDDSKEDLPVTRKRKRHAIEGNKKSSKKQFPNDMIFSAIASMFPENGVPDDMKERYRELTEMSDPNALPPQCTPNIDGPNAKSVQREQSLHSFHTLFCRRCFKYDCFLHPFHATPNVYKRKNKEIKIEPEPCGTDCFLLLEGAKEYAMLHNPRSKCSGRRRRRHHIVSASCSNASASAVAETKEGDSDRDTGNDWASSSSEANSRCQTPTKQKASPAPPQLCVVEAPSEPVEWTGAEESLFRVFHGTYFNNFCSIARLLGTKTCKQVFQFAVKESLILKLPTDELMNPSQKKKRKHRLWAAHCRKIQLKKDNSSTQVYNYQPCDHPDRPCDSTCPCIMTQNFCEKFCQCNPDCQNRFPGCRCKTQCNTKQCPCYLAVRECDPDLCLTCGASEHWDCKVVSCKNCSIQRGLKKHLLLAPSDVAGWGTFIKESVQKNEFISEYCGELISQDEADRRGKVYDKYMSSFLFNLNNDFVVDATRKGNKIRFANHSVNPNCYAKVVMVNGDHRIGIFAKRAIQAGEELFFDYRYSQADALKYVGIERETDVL
Briefly: Inhibition of EZH1 in PRC2 complex (unknown origin) using biotinylated peptide as substrate in presence of S-adenosylmethionine.

Series [17] is described as follows: Plasma concentration in SCID mouse xenografted with human G-401 cells at 125 mg/kg, po BID administered for 21 days and measured at 3 hrs post dose on day 21 by LC-MS/MS analysis. In kind it is ADME, organism-based. The note with it: time 21 day.
Series [18] can be described thus: Plasma concentration in Swiss albino mouse at 50 mg/kg, ip measured up to 24 hrs by LC-MS/MS analysis. In kind it is ADME, organism-based.
Series [19] has as its target T1, Polycomb protein EED. Put plainly: Displacement of OG(488) labeled probe from GST-tagged EED (unknown origin) incubated for 1 hr by lanthaScreen TR-FRET method.
The target of series [20] is T1, Polycomb protein EED. Briefly: Displacement of 3-FAM from N-terminal 6His-tagged full length EED (unknown origin) expressed in Escherichia coli Rosetta2 BL21(DE3)pLysS incubated for 30 mins by fluorescence polarization assay.

Sequence of von Hippel-Lindau disease tumor suppressor/Polycomb protein EED (Homo sapiens) (O75530 2-441 limits assumed): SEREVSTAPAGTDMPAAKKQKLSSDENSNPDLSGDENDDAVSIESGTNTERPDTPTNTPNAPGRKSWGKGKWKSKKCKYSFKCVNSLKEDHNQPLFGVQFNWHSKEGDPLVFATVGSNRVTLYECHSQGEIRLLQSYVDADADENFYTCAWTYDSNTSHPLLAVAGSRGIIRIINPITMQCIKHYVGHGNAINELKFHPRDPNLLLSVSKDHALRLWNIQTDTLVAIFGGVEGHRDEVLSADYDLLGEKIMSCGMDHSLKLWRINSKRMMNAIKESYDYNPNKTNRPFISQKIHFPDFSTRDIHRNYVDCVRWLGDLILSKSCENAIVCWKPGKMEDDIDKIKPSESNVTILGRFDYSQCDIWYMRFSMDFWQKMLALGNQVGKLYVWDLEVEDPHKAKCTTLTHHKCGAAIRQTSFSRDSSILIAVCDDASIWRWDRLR
Sequence of von Hippel-Lindau disease tumor suppressor/Polycomb protein EED (Homo sapiens) (P40337 whole entry partner): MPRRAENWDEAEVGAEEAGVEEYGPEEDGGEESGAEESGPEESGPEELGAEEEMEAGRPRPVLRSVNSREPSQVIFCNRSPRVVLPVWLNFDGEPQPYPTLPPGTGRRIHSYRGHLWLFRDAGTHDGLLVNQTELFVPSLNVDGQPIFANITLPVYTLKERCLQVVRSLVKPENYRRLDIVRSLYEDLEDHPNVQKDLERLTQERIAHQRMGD

In turn, `CN(C)[C@H]1CN(C2CCc3cccc(F)c32)C[C@@H]1c1cn(C)c2ccccc12` (stereo not given in full) came in with a Ki on Polycomb protein EED [1] of 11 nM.

In the case of `Cc1ncccc1-c1cnc(NCc2c(F)ccc3c2CCO3)n2cnnc12`, the inhibition in vivo at 30 mg/kg in the series with CT26 is 59%.

Turning to `Cc1nc(CCC(=O)NCCCCC(=O)N[C@H](C(=O)N2C[C@H](O)C[C@H]2C(=O)NCc2ccc(-c3scnc3C)cc2)C(C)(C)C)ccc1-c1cnc(NCc2c(F)ccc3c2CCO3)n2cnnc12`, on Polycomb protein EED [2], the Kd was < 1 nM. The compound also showed a GI50 in the series with KARPAS-422 of 57 nM. For the same compound, the Drug uptake in series [3] is recorded as 0.03 pmol; in series [4], 0.79 pmol.

For the compound `CNC(=O)CCc1ccc(-c2cnc(NCc3c(F)ccc4c3CCO4)n3cnnc23)c(C)n1`, it took 14 nM to inhibit growth in the series on KARPAS-422 by half (GI50). Moreover, the Drug uptake in [3] amounted to 0.34 pmol; in [4] it was 0.19 pmol.

As for `Cc1cc(C)c(CNC(=O)c2cc(-c3ccc(CN4CCOCC4)cc3)cc3c2cnn3C(C)C)c(=O)[nH]1`, the affinity in [5], expressed as Ki, was 80 nM.

With `CCCc1cc(C)[nH]c(=O)c1CNC(=O)c1cc(-c2ccc(N3CCN(C)CC3)nc2)nc2c1cnn2C(C)C`, half-maximal inhibition in series [6] (IC50) was put at 11 nM.

Regarding `CCCc1cc(C)[nH]c(=O)c1CNC(=O)c1cc(-c2ccc(N3CCN(C(C)C)CC3)nc2)cc2c1cnn2C(C)C`, the IC50 in series [7] was 2 nM. In addition, in series [8], the Cmax stood at 12 µM. Also, the Time in series [9] is 24 h; in series [10], 12 h; in series [11], 20 h.

As to `Cc1nc(CCC(=O)NCCOc2ccc(OCC(=O)N[C@H](C(=O)N3C[C@H](O)C[C@H]3C(=O)NCc3ccc(-c4scnc4C)cc3)C(C)(C)C)cc2)ccc1-c1cnc(NCc2c(F)ccc3c2CCO3)n2cnnc12`, the dissociation constant Kd on Polycomb protein EED [2] is < 1 nM. In addition, in the series on KARPAS-422, the GI50 is 45 nM. For the same compound, the Drug uptake in series [3] was found to be 4.69 pmol; in [4], 37.2 pmol.

For the compound `CS(=O)(=O)c1ccc(-c2cnc(NCc3ccco3)n3cnnc23)cc1`, the concentration in series [12] is > 30 µM. For the same compound, the IC50 was 23.4 nM on Polycomb protein EED [13] and 45 nM on Polycomb protein EED [14].

As for `Cc1cc(C)c(CNC(=O)c2cc(-c3ccc4c(c3)OCCO4)nc3c2cnn3C(C)C)c(=O)[nH]1`, in series [5], the Ki worked out at 310 nM.

As to `Cc1ncsc1-c1ccc(CNC(=O)[C@@H]2C[C@@H](O)CN2C(=O)[C@@H](NC(=O)CCCNC(=O)c2ccc(-c3cnc(NCc4ccco4)n4cnnc34)cc2)C(C)(C)C)cc1`, the Activity in series [15] turned out to be 80%.

As for `Cc1cc(C)c(CNC(=O)c2cc(-c3ccc(CN4CCOCC4)cc3)cc3c2cnn3C2CCCC2)c(=O)[nH]1`, the IC50 in [16] turned out to be 45 nM. Besides, the concentration at 504 h in series [17] is 8 µM.

Regarding `Cc1cc(C)c(CNC(=O)c2cc(-c3ccc(N4CCN(CCNC(=O)CC56CC7CC(CC(C7)C5)C6)CC4)nc3)cc3c2cnn3C(C)C)c(=O)[nH]1`, in series [18], the concentration at 24 h was > 1 µM.

The compound `CN(C)[C@H]1CN(Cc2ccccc2)C[C@@H]1c1ccc(N2CCN(S(C)(=O)=O)CC2)cc1` showed a Ki on Polycomb protein EED [19] of 1830 nM.

Take `COC(=O)[C@H](C)NC(=O)[C@H](Cc1ccccc1)NC(=O)[C@H](CCCC[N+](C)(C)C)NC(=O)[C@H](CCCNC(=N)N)NC(=O)[C@@H](N)CCC(N)=O` (H-QR[Lys(Me3)]FA-OMe): the concentration for half-maximal inhibition (IC50) at Polycomb protein EED [20] stood at 14800 nM.
